Several values for one entry are separate records, joined by “and”; a condition that tells them apart may be missing. Identical values can stand only once. Like-named read-outs stand apart in the source and are kept apart here. Blank lines part the entries; values can stand above or below the compound they belong to.
Key:
[1] = Accelerated stability of 30% goserelin at 80° C., purity by RP-HPLC; assay type: physicochemical; settings: 30% (w/w) in acetate buffer pH 5.0 with 3% mannitol, glass ampules, after 9 days
[2] = Stability of 40-45% goserelin formulations, one month at 37° C., RP-HPLC; assay type: physicochemical; settings: for % PURITY / % CONCENTRATION: 40-45% (w/w); for % CONCENTRATION: patent calls these data inconclusive
Protocol: (§1) Stability samples were analyzed using RP-HPLC. The area under the curve for the leuprolide peak divided by the sum of the areas under the curve of all peaks gave % purity. […] Formulations of 40-45% (w/w) goserelin in either acetate buffer, with 3% mannitol or acetate buffer with salt (0.9% NaCl) were prepared as described above and placed in polymeric containers. The containers were stored at 37° C. for one month in an incubator. The samples were analyzed using RP-HPLC to determine the chemical stability of the aged formulations.

[3] = Gelation of aqueous peptide formulations on adding polar aprotic solvents such as DMSO; assay type: physicochemical; settings: aqueous formulation
Excerpt: Thus, these solvents have an anti-gellant effect.

[4] = assay type: physicochemical; settings: for evaporated from reservoir / % Leuprolide at Day 7: 88° C.; for evaporated from reservoir: 7 days
Excerpt: The reservoirs of implantable drug delivery devices (as disclosed in U.S. patent application Ser. No. 08/595,761, incorporated herein by reference) were filled with the appropriate leuprolide acetate solution. The filled devices then underwent stability testing. The formulation was filled into titanium or polymer reservoirs with a polymer plug blocking each end. The filled reservoir was then sealed in a polyfoil bag and placed in a stability testing oven. […] The chromatographic conditions used are listed below. Leuprolide standards (in water) at 4 to 6 different concentration levels, typically between 0.1-1.2 mg/mL, were run along with the stability samples. The stability samples were bracketed by the standard sets, with no more than 40 samples in between the standard sets. All peaks between the void volume and 45 minutes of the run were integrated. The integrated peak areas for the leuprolide standards were plotted as a function of the concentration. The leuprolide concentrations for the stability samples were then calculated using linear regression. The % peak areas for the leuprolide peak, the sum of all the peaks eluting before leuprolide (labeled "others"), and the sum of all the peaks eluting after leuprolide (labeled "aggregates") were also recorded and plotted as a function of the sample timepoints. Formulations of 40% (w/w) leuprolide acetate (equivalent to about 37% leuprolide free base) in either sterile distilled water, ethanol/water (70/30) or water with 10% Tween 20 were prepared as described above and used to fill the reservoirs of implantable drug delivery devices, also as described above. Some reservoirs were made of polymer materials, while some were titanium. The filled devices were subjected to accelerated aging by storing them at elevated temperatures (80-88° C.) for seven days in an incubator (Precision Scientific or Thelco). This is equivalent to about 1.5 years at 37° C. or about four years at room temperature (25° C.), assuming an activation energy (Ea) or 22.2 kcal/mole. The samples were analyzed using RP-HPLC and SEC as described above to determine the chemical and physical stability of the aged formulations.

[5] = Stability of 40% leuprolide acetate formulations after 2.5 megarad gamma irradiation and accelerated aging, RP-HPLC and SEC; assay type: physicochemical; settings: for % Leuprolide at Day 7 (RP-HPLC) / SEC Day 0 % dimer/trimer / SEC Day 0 % monomer / SEC Day 7 % dimer/trimer / SEC Day 7 % monomer: 40% in Water
Protocol: (§2) The chromatographic conditions used are listed below.
Formulations of 40% (w/w) as received leuprolide acetate (equivalent to 37% leuprolide free base) in water were prepared as described above and used to fill the reservoirs of drug delivery devices, also as described above. Some reservoirs were made of polymer materials, while some were titanium.
The filled devices were subjected to 2.5 megarad gamma irradiation. Samples were shipped to Sterigenics (Tustin, Calif.) and gamma irradiated (Cobalt 60) in batch mode. Samples were then subjected to accelerated aging as in Example 1. Samples labeled "cold" were shipped and irradiated on dry ice. Samples were taken at day 0 and day 7, and analyzed using RP-HPLC and SEC as described above to determine the chemical and physical stability of the irradiated formulations.

[6] = Protocol: as §2
Selected stability samples were analyzed for % peak area and molecular weights using an isocratic solution SEC assay with a refrigerated autosampler (4° C.). The chromatographic conditions used are listed below.
Solutions of 40% leuprolide acetate (w/w) in water were prepared, loaded into reservoirs, stored for two months at 80° C. and analyzed as described above.
Leuprolide acetate solutions (40% (w/w) in water) were prepared, loaded, stored at 37° C., 50° C., 65° C. or 80° C. and analyzed using RP-HPLC as described above.
Solutions of 40% leuprolide acetate (w/w) in water were prepared, loaded into reservoirs, stored at 37° C., 50° C., 65° C. or 80° C. and analyzed using RP-HPLC as described above.

bacteria = assay: Bacteriostatic, bactericidal and sporicidal activity of leuprolide formulations; spiking with bacteria; settings: formulations of 50-400 mg/ml
[7] = 40% in water, nine months at 37° C., RP-HPLC
Protocol: All stability samples were analyzed for leuprolide concentration and % peak area using a gradient elution reversed-phase HPLC assay with a refrigerated autosampler (4° C.) to minimize sample degradation.

[8] = Stability of 15% nafarelin formulation, one month at 37° C., RP-HPLC; assay type: physicochemical; settings: 15% (w/w), Acetate Buffer/Mannitol
Protocol: as §1, with “15%” for “40-45%”, “nafarelin” for “goserelin”, “in” for “in either”, “buffer” for “buffer,”, “mannitol” for “mannitol or acetate buffer with salt (0.9% NaCl)”

[9] = Acetate Buffer/Salt (0.9% NaCl)
[10] = all Table IV formulations, after irradiation and 7 days accelerated aging
[11] = polymer reservoir, irradiated cold (on dry ice)
[12] = polymer reservoir, not irradiated
[13] = titanium reservoir, not irradiated

goserelin remained [1]: about 65%
% PURITY ([2]; Acetate Buffer/Mannitol): 98.1%
% CONCENTRATION ([2]; Acetate Buffer/Mannitol): 54.2%
% PURITY [2, 9]: 98.0%
% CONCENTRATION [2, 9]: 50.1%
goserelin retained, in each case ([2]; both vehicles): at least 98%
effect of adding polar aprotic solvents such as DMSO on gelation [3]: prevents gelation
Compound: CC(C)C[C@H](NC(=O)[C@@H](COC(C)(C)C)NC(=O)[C@H](Cc1ccc(O)cc1)NC(=O)[C@H](CO)NC(=O)[C@H](Cc1c[nH]c2ccccc12)NC(=O)[C@H](Cc1cnc[nH]1)NC(=O)[C@@H]1CCC(=O)N1)C(=O)N[C@@H](CCCNC(=N)N)C(=O)N1CCC[C@H]1C(=O)NNC(N)=O [Goserelin, goserelin]

Compound: CCNC(=O)[C@@H]1CCCN1C(=O)[C@H](CCCNC(=N)N)NC(=O)[C@H](CC(C)C)NC(=O)[C@@H](CC(C)C)NC(=O)[C@H](Cc1ccc(O)cc1)NC(=O)[C@H](CO)NC(=O)[C@H](Cc1c[nH]c2ccccc12)NC(=O)[C@H](Cc1c[nH]cn1)NC(=O)[C@@H]1CCC(=O)N1 [Leuprolide Acetate, leuprolide acetate]
evaporated from reservoir ([4]; polymer reservoir, 40% in EtOH/H2O): 60%
evaporated from reservoir ([4]; polymer reservoir, 40% in Water (sample with 66% leuprolide)): 10%
% Leuprolide at Day 7 ([4]; polymer reservoir, 40% in 10% Tween 20): 65%
% Leuprolide at Day 7 ([4]; polymer reservoir, 40% in EtOH/H2O (70/30)): 85%
% Leuprolide at Day 7 ([4]; polymer reservoir, 40% in Water): 68% and 66%
% Leuprolide at Day 7 ([4]; titanium reservoir, 40% in Water): 71%
leuprolide retained, in each case ([4]; all Table III formulations, 7 days at 80-88° C.): at least 65%
aggregate formation [5, 10]: low levels of aggregate formation
leuprolide retained, in every case [5, 10]: at least 65%
% Leuprolide at Day 7 (RP-HPLC) ([5]; polymer reservoir, irradiated): 75%
SEC Day 0 % dimer/trimer ([5]; polymer reservoir, irradiated): 1.2%
SEC Day 0 % monomer ([5]; polymer reservoir, irradiated): 90.4%
SEC Day 7 % dimer/trimer ([5]; polymer reservoir, irradiated): 3.9%
SEC Day 7 % monomer ([5]; polymer reservoir, irradiated): 80.9%
% Leuprolide at Day 7 (RP-HPLC) [5, 11]: 79%
SEC Day 0 % dimer/trimer [5, 11]: 0.2%
SEC Day 0 % monomer [5, 11]: 89.4%
SEC Day 7 % dimer/trimer [5, 11]: 3.1%
SEC Day 7 % monomer [5, 11]: 80.3%
% Leuprolide at Day 7 (RP-HPLC) [5, 12]: 75%
SEC Day 0 % dimer/trimer [5, 12]: 0.2%
SEC Day 0 % monomer [5, 12]: 99.8%
SEC Day 7 % dimer/trimer [5, 12]: 3.1%
SEC Day 7 % monomer [5, 12]: 82.4%
% Leuprolide at Day 7 (RP-HPLC) ([5]; titanium reservoir, irradiated): 83% and 81% and 73% and 79% and 74%
SEC Day 0 % dimer/trimer ([5]; titanium reservoir, irradiated): 1.1% and 0.9% and 0.8% and 0.5%
SEC Day 0 % monomer ([5]; titanium reservoir, irradiated): 98.5% and 98.8% and 99.1% and 99% and 98.6%
SEC Day 7 % dimer/trimer ([5]; titanium reservoir, irradiated): 2% and 2.4% and 3% and 3.4% and 3.6%
SEC Day 7 % monomer ([5]; titanium reservoir, irradiated): 84.9% and 94.7% and 88.3% and 94.3% and 90.9%
% Leuprolide at Day 7 (RP-HPLC) [5, 13]: 82%
SEC Day 0 % dimer/trimer [5, 13]: 0%
SEC Day 0 % monomer [5, 13]: 99.6% and 99.9%
SEC Day 7 % dimer/trimer [5, 13]: 0% and 1.9%
SEC Day 7 % monomer [5, 13]: 96.6% and 95%
chemical degradation [6]: 14.6%
activation energy (Ea) of leuprolide loss ([6]; 40% (w/w) in water, 37-80° C.): 92.9 kJ/mol
Kobs ([6]; 40% (w/w) in water, 37° C.): 7.24 × 10^-3 months^-1
t1/2 ([6]; 40% (w/w) in water, 37° C.): 95.7 months
t90 ([6]; 40% (w/w) in water, 37° C.): 13.8 months
Kobs ([6]; 40% (w/w) in water, 50° C.): 3.21 × 10^-2 months^-1
t1/2 ([6]; 40% (w/w) in water, 50° C.): 21.6 months
Kobs ([6]; 40% (w/w) in water, 65° C.): 0.111 months^-1
t1/2 ([6]; 40% (w/w) in water, 65° C.): 6.3 months
Kobs ([6]; 40% (w/w) in water, 80° C.): 0.655 months^-1
t1/2 ([6]; 40% (w/w) in water, 80° C.): 1.1 months
physical aggregation ([6]; 40% (w/w) in water, two months at 80° C.): 5.1%
leuprolide recovered ([6]; 40% (w/w) in water, two months at 80° C., RP-HPLC): 81.1%
aggregation by SEC (FIG. 2) ([6]; 40% in water, two months at 80° C., dimer and trimer only): very little aggregation
antimicrobial activity (bacteria): bacteriostatic, bactericidal and sporicidal activity
stability of samples after spiking with bacteria (bacteria): unaffected
effect of adding polar aprotic solvents such as DMSO on gelation [3]: prevents gelation
leuprolide present [7]: 88.3%
physical aggregates ("late") [7]: 3.5%

% PURITY [8]: 98.8%
nafarelin retained [8]: at least 98%
% CONCENTRATION ([8]; patent calls these data inconclusive): 18.3%
Compound: CC(C)C[C@H](NC(=O)[C@@H](Cc1ccc2ccccc2c1)NC(=O)[C@H](Cc1ccc(O)cc1)NC(=O)[C@H](CO)NC(=O)[C@H](Cc1c[nH]c2ccccc12)NC(=O)[C@H](Cc1c[nH]cn1)NC(=O)[C@@H]1CCC(=O)N1)C(=O)N[C@@H](CCCNC(=N)N)C(=O)N1CCC[C@H]1C(=O)NCC(N)=O [Nafarelin, nafarelin]

effect of adding polar aprotic solvents such as DMSO on gelation [3]: prevents gelation
Compound: calcitonin
